From patent publication US10023602B2, “Hamamelitannin analogues and uses thereof” (Universiteit Gent, priority 2014, dated 2018)

Assays:
[1] = test system: methicillin resistant S. aureus Mu50 strain (S. aureus ATCC700699) biofilm; test: Biofilm susceptibility to vancomycin, combination treatment regimen (mature biofilm treated with compound plus vancomycin); format: cell-based; conditions: for Combin. (100 μM): percentage Colony Forming Units (CFU's) per biofilm: compound 100 μM together with VAN 20 μg/ml on mature biofilm; for EC50: concentration needed to get 50% killing compared to antibiotic alone (VAN 20 μg/ml) and complete killing, read-out: Combin. (EC50)
How it was run: (§1)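 Mu50 biofilms from 10^8 CFU/ml inoculum (4 h adhesion, then 20 h, 37 °C). Pre-treatment: compound (0.1-250 μM) present during biofilm formation, then vancomycin 20 μg/ml alone 24 h; combination: mature biofilm given vancomycin 20 μg/ml plus compound 24 h. Survivors counted by plating versus vancomycin alone.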

[2] = test system: methicillin resistant S. aureus Mu50 strain (S. aureus ATCC700699) biofilm; test: Biofilm susceptibility to vancomycin, pre-treatment regimen (biofilm formed in presence of compound, then vancomycin); format: cell-based; conditions: for Pretreat (100 μM): percentage Colony Forming Units (CFU's) per biofilm: compound 100 μM during biofilm formation; for EC50: concentration needed to get 50% killing compared to antibiotic alone (VAN 20 μg/ml) and complete killing, read-out: Pretreat. (EC50)
How it was run: as §1

[3] = compared to the untreated (negative) control
[4] = then VAN 20 μg/ml, compared to the untreated (negative) control

O=C(NC[C@]1(O)CO[C@H](CNC(=O)c2ccccc2F)[C@H]1O)c1ccccc1 [compound 170, N-(((2R,3R,4S)-4-(benzamidomethyl)-3,4-dihydroxytetrahydrofuran-2-yl)methyl)-2-fluorobenzamide]
Combin. (100 μM): percentage Colony Forming Units (CFU's) per biofilm [1, 3]: 16.30 percentage
Pretreat (100 μM): percentage Colony Forming Units (CFU's) per biofilm [2, 4]: 11.84 percentage

O=C(NC[C@]1(O)CO[C@H](CNC(=O)c2ccccc2Cl)[C@H]1O)c1ccccc1F [compound 245, 2-chloro-N-(((2R,3R,4S)-4-((2-fluorobenzamido)methyl)-3,4-dihydroxytetrahydrofuran-2-yl)methyl)benzamide]
Combin. (25 μM): percentage Colony Forming Units (CFU's) per biofilm ([1]; compound 25 μM together with VAN 20 μg/ml on mature biofilm, compared to the untreated (negative) control): 44.14 percentage
EC50 [1]: 62.2 µM
Pretreat. (25 μM): percentage Colony Forming Units (CFU's) per biofilm ([2]; compound 25 μM during biofilm formation, then VAN 20 μg/ml, compared to the untreated (negative) control): 61.75 percentage
EC50 [2]: 48.6 µM

O=C(NC[C@@H]1OC[C@@](O)(CNC(=O)c2ccccc2)[C@@H]1O)c1ccccc1 [compound 270, N,N′-(((2S,3R,4S)-3,4-dihydroxytetrahydrofuran-2,4-diyl)bis(methylene))dibenzamide]
Combin. (100 μM): percentage Colony Forming Units (CFU's) per biofilm [1, 3]: 55.70 percentage
EC50 [1]: > 250 µM
Pretreat (100 μM): percentage Colony Forming Units (CFU's) per biofilm [2, 4]: 51.80 percentage
EC50 [2]: 224 µM

O=C(NC[C@]1(O)CO[C@H](CNS(=O)(=O)C(F)(F)F)[C@H]1O)c1ccccc1 [compound 214, N-(((3S,4R,5R)-3,4-dihydroxy-5-(((trifluoromethyl)sulfonamido)methyl)tetrahydrofuran-3-yl)methyl)benzamide]
Combin. (100 μM): percentage Colony Forming Units (CFU's) per biofilm [1, 3]: 42.85 percentage
Pretreat (100 μM): percentage Colony Forming Units (CFU's) per biofilm [2, 4]: 29.28 percentage

O=C(NC[C@]1(O)CO[C@H](CNS(=O)(=O)c2ccccc2)[C@H]1O)c1ccccc1 [compound 215, N-(((3S,4R,5R)-3,4-dihydroxy-5-(phenylsulfonamidomethyl)tetrahydrofuran-3-yl)methyl)benzamide]
Combin. (100 μM): percentage Colony Forming Units (CFU's) per biofilm [1, 3]: 31.29 percentage
Pretreat (100 μM): percentage Colony Forming Units (CFU's) per biofilm [2, 4]: 22.23 percentage

Cn1c(C(=O)NC[C@H]2OC[C@@](O)(CNC(=O)c3ccccc3)[C@@H]2O)cc2ccccc21 [compound 186, N-(((2R,3R,4S)-4-(benzamidomethyl)-3,4-dihydroxytetrahydrofuran-2-yl)methyl)-1-methyl-1H-indole-2-carboxamide]
Combin. (100 μM): percentage Colony Forming Units (CFU's) per biofilm [1, 3]: 42.75 percentage
Pretreat (100 μM): percentage Colony Forming Units (CFU's) per biofilm [2, 4]: 41.45 percentage

O=C(NC[C@]1(O)CO[C@H](CNC(=O)c2c(Cl)cncc2Cl)[C@H]1O)c1ccccc1 [compound 195, N-(((2R,3R,4S)-4-(benzamidomethyl)-3,4-dihydroxytetrahydrofuran-2-yl)methyl)-3,5-dichloroisonicotinamide]
Combin. (100 μM): percentage Colony Forming Units (CFU's) per biofilm [1, 3]: 18.55 percentage
EC50 [1]: 9.26 µM
Pretreat (100 μM): percentage Colony Forming Units (CFU's) per biofilm [2, 4]: 18.31 percentage
EC50 [2]: 7.2 µM

O=C(NC[C@H]1OC[C@@](O)(CNC(=O)c2ccccc2)[C@@H]1O)c1ccc(Cl)nc1 [compound 202, N-(((2R,3R,4S)-4-(benzamidomethyl)-3,4-dihydroxytetrahydrofuran-2-yl)methyl)-6-chloronicotinamide]
Combin. (100 μM): percentage Colony Forming Units (CFU's) per biofilm [1, 3]: 18.24 percentage
Pretreat (100 μM): percentage Colony Forming Units (CFU's) per biofilm [2, 4]: 14.00 percentage

O=C(NC[C@]1(O)CO[C@H](CNC(=O)c2cccc3ccccc23)[C@H]1O)c1ccccc1 [compound 184, N-(((2R,3R,4S)-4-(benzamidomethyl)-3,4-dihydroxytetrahydrofuran-2-yl)methyl)-1-naphthamide]
Combin. (100 μM): percentage Colony Forming Units (CFU's) per biofilm [1, 3]: 40.23 percentage
Pretreat (100 μM): percentage Colony Forming Units (CFU's) per biofilm [2, 4]: 33.91 percentage

COc1cc(C(=O)NC[C@H]2OC(O)[C@@](O)(CNC(=O)c3cc(OC)c(OC)c(OC)c3)[C@@H]2O)cc(OC)c1OC (stereo partly drawn) [compound 16, N,N′-(((2R,3R,4R)-3,4,5-trihydroxytetrahydrofuran-2,4-diyl)bis(methylene))bis(3,4,5-trimethoxybenzamide)]
Combin. (100 μM): percentage Colony Forming Units (CFU's) per biofilm [1, 3]: 71.85 percentage
EC50 [1]: 238 µM
Pretreat (100 μM): percentage Colony Forming Units (CFU's) per biofilm [2, 4]: 62.41 percentage
EC50 [2]: 207 µM

O=C(NC[C@H]1OC(O)[C@@](O)(CNC(=O)c2ccc(O)cc2)[C@@H]1O)c1ccc(O)cc1 (stereo partly drawn) [compound 20, N,N′-(((2R,3R,4R)-3,4,5-trihydroxytetrahydrofuran-2,4-diyl)bis(methylene))bis(4-hydroxybenzamide)]
Combin. (100 μM): percentage Colony Forming Units (CFU's) per biofilm [1, 3]: 27.23 percentage
EC50 [1]: 52.3 µM
Pretreat (100 μM): percentage Colony Forming Units (CFU's) per biofilm [2, 4]: 19.78 percentage
EC50 [2]: 85.6 µM

O=C(NC[C@H]1OC[C@@](O)(CNC(=O)c2ccccc2)[C@@H]1O)c1cccc(-c2ccccc2)c1 [compound 168, N-(((2R,3R,4S)-4-(benzamidomethyl)-3,4-dihydroxytetrahydrofuran-2-yl)methyl)-[1,1′-biphenyl]-3-carboxamide]
Combin. (100 μM): percentage Colony Forming Units (CFU's) per biofilm [1, 3]: 32.61 percentage
Pretreat (100 μM): percentage Colony Forming Units (CFU's) per biofilm [2, 4]: 9.830 percentage

O=C(NC[C@]1(O)CO[C@H](CNC(=O)c2ccc(Cl)nc2Cl)[C@H]1O)c1ccccc1 [compound 197, N-(((2R,3R,4S)-4-(benzamidomethyl)-3,4-dihydroxytetrahydrofuran-2-yl)methyl)-2,6-dichloronicotinamide]
Combin. (100 μM): percentage Colony Forming Units (CFU's) per biofilm [1, 3]: 16.84 percentage
EC50 [1]: 8.27 µM
Pretreat (100 μM): percentage Colony Forming Units (CFU's) per biofilm [2, 4]: 18.75 percentage
EC50 [2]: 7.92 µM

O=C(NC[C@H]1OC[C@@](O)(CNC(=O)c2ccnnc2)[C@@H]1O)c1ccnnc1 [compound 257, N,N′-(((2R,3R,4S)-3,4-dihydroxytetrahydrofuran-2,4-diyl)bis(methylene))bis(pyridazine-4-carboxamide)]
Combin. (100 μM): percentage Colony Forming Units (CFU's) per biofilm [1, 3]: 17.13 percentage
EC50 [1]: 18 µM
Pretreat (100 μM): percentage Colony Forming Units (CFU's) per biofilm [2, 4]: 1.71 percentage
EC50 [2]: 7.13 µM

O=C(NC[C@H]1OC[C@@](O)(CNC(=O)c2ccccc2)[C@@H]1O)c1ccc(-c2ccccc2)cc1 [compound 159, N-(((2R,3R,4S)-4-(benzamidomethyl)-3,4-dihydroxytetrahydrofuran-2-yl)methyl)-[1,1′-biphenyl]-4-carboxamide]
Combin. (100 μM): percentage Colony Forming Units (CFU's) per biofilm [1, 3]: 6.966 percentage
EC50 [1]: 11.3 µM
Pretreat (100 μM): percentage Colony Forming Units (CFU's) per biofilm [2, 4]: 10.97 percentage
EC50 [2]: 6.38 µM

O=C(NC[C@H]1OC(O)[C@@](O)(CNC(=O)c2ccc(O)c(O)c2)[C@@H]1O)c1ccc(O)c(O)c1 (stereo partly drawn) [compound 17, N,N′-(((2R,3R,4R)-3,4,5-trihydroxytetrahydrofuran-2,4-diyl)bis(methylene))bis(3,4-dihydroxybenzamide)]
Combin. (100 μM): percentage Colony Forming Units (CFU's) per biofilm [1, 3]: 61.16 percentage
EC50 [1]: 169 µM
Pretreat (100 μM): percentage Colony Forming Units (CFU's) per biofilm [2, 4]: 55.76 percentage
EC50 [2]: 182 µM

O=C(NC[C@H]1OC[C@@](O)(CNC(=O)c2ccccc2)[C@@H]1O)c1cccc(F)c1 [compound 161, N-(((2R,3R,4S)-4-(benzamidomethyl)-3,4-dihydroxytetrahydrofuran-2-yl)methyl)-3-fluorobenzamide]
Combin. (100 μM): percentage Colony Forming Units (CFU's) per biofilm [1, 3]: 16.57 percentage
Pretreat (100 μM): percentage Colony Forming Units (CFU's) per biofilm [2, 4]: 9.353 percentage

O=C(NC[C@H]1OC[C@@](O)(CNC(=O)c2ccccc2)[C@@H]1O)c1ccc(Cl)c(Cl)c1 [compound 182, N-(((2R,3R,4S)-4-(benzamidomethyl)-3,4-dihydroxytetrahydrofuran-2-yl)methyl)-3,4-dichlorobenzamide]
Combin. (100 μM): percentage Colony Forming Units (CFU's) per biofilm [1, 3]: 33.81 percentage
Pretreat (100 μM): percentage Colony Forming Units (CFU's) per biofilm [2, 4]: 42.13 percentage

Cc1ccccc1C(=O)NC[C@H]1OC[C@@](O)(CNC(=O)c2ccccc2)[C@@H]1O [compound 169, N-(((2R,3R,4S)-4-(benzamidomethyl)-3,4-dihydroxytetrahydrofuran-2-yl)methyl)-2-methylbenzamide]
Combin. (100 μM): percentage Colony Forming Units (CFU's) per biofilm [1, 3]: 13.87 percentage
EC50 [1]: 52.6 µM
Pretreat (100 μM): percentage Colony Forming Units (CFU's) per biofilm [2, 4]: 11.68 percentage
EC50 [2]: 13.7 µM

O=C(NC[C@]1(O)CO[C@H](CNC(=O)c2cnccc2Cl)[C@H]1O)c1ccccc1 [compound 201, N-(((2R,3R,4S)-4-(benzamidomethyl)-3,4-dihydroxytetrahydrofuran-2-yl)methyl)-4-chloronicotinamide]
Combin. (100 μM): percentage Colony Forming Units (CFU's) per biofilm [1, 3]: 74.81 percentage
EC50 [1]: > 250 µM
Pretreat (100 μM): percentage Colony Forming Units (CFU's) per biofilm [2, 4]: 51.81 percentage
EC50 [2]: 200 µM
